# Laboratory results: patent US12383545B1, “Treatment of migraine” (priority 2018, dated 2025)
# What was measured:
# [1] = tested on: participants with episodic migraine; experiment: Study B: MSQ v2.1 domain score over 52 weeks; type: in vivo, human; details: Role Function-Restrictive (RFR) domain, atogepant 60 mg, mITT Population
# Source text: The Migraine-Specific Quality of Life Questionnaire Version 2.1 is one of the most frequently utilized disease-specific tools assessing the impact of migraine on HRQL. The MSQ is a validated tool that assess the impact of migraine on function (i.e., daily social and work-related activities) over the past 4 weeks across three dimensions: Role Function-Restrictive (RR, or “RFR”, relating to how migraines limit the patient's daily social and work related activities), Role Function-Preventive (RP, e.g., how migraines prevent the patient's daily social and work related activities), and Emotional Function (EF, e.g., the emotions associated with a patient's migraines). Patients respond to items using a 6-point scale: “none of the time,” “a little bit of the time,” “some of the time”, “a good bit of the time,” “most of the time” and “all of the time,” which are assigned scores of 1 to 6, respectively. Raw dimension scores are computed as a sum of item responses and rescaled from a 0 to 100 scale such that higher scores indicate better quality of life. See Bagley et al., Validating Migraine-Specific Quality of Life Questionnaire v2.1 in Episodic and Chronic Migraine, Headache, 2012 March; 52 (3): 409-21.
# The Migraine-Specific Quality of Life Questionnaire version 2.1 (MSQv2.1) Role Function-Restrictive (RFR) domain least squares (LS) mean (standard error [SE]) at baseline was 48.1 (20.26) and LS mean changes from baseline throughout the trial are shown in FIG. 17 and in Table 32. Findings indicated rapid improvement over the first 12 weeks and sustained improvement from 12 to 52 weeks, and non-zero confidence intervals throughout indicate significant improvement at each timepoint assessed.
# ALT or AST = experiment: Example 5: postbaseline hepatic laboratory parameter values of clinical interest; type: in vivo, human; details: safety population; for Participants with Concurrent Elevations ALT or AST >=3 * ULN AND Bilirubin Total >=1.5 * ULN, n/N1 / Participants with Concurrent Elevations ALT or AST >=3 * ULN AND Bilirubin Total >=2 * ULN, n/N1 / Participants with Potential Hy's Law ALT or AST >=3 * ULN AND Bilirubin Total >=2 * ULN AND ALP <2 * ULN, n/N1: same day
# Description: In a multicenter, randomized, double-blind, placebo-controlled, parallel-group study designed to evaluate the efficacy, safety, and tolerability of multiple doses and doses regimens of atogepant for the prevention of migraine. The patients were randomized (2:1:2:1:2:1) to 1 of 6 treatment groups: placebo, atogepant 10 mg QD, atogepant 30 mg QD, atogepant 30 mg BID, atogepant 60 mg QD, and atogepant 60 mg BID.
# A total of 834 patients were randomized to double-blind treatment (ITT population), and 825 patients took at least 1 dose of double-blind IP (safety population). […] The primary efficacy variable was the change from baseline in mean monthly migraine/probable migraine headache days across the 12-week treatment period. The secondary efficacy variables were the change from baseline in mean monthly headache days across the 12-week treatment period, proportion of patients with at least a 50% reduction in mean monthly migraine/probable migraine headache days across the 12-week treatment period, and the change from baseline in mean monthly acute medication use days across the 12-week treatment period.
smiles,measurement,setting,value
C[C@@H]1[C@H](c2c(F)ccc(F)c2F)C[C@H](NC(=O)c2cnc3c(c2)C[C@@]2(C3)C(=O)Nc3ncccc32)C(=O)N1CC(F)(F)F [atogepant],"Change from Baseline in MSQ v2.1 Domain Score, LS Mean Δ from baseline",[1]; Week 12,30.02
same,"Change from Baseline in MSQ v2.1 Domain Score, LS Mean Δ from baseline",[1]; Week 24,30.79
same,"Change from Baseline in MSQ v2.1 Domain Score, LS Mean Δ from baseline",[1]; Week 36,32.34
same,"Change from Baseline in MSQ v2.1 Domain Score, LS Mean Δ from baseline",[1]; Week 48,34.32
same,"Change from Baseline in MSQ v2.1 Domain Score, LS Mean Δ from baseline",[1]; Week 52,34.70
same,"Participants with postbaseline ALT or AST (U/L) >=1 * ULN, (%)",ALT or AST; Atogepant 10 mg QD (N = 93),(18.5) %
same,"Participants with postbaseline ALT or AST (U/L) >=1 * ULN, n/N1",ALT or AST; Atogepant 10 mg QD (N = 93),17/92
same,"Participants with postbaseline ALT or AST (U/L) >=1.5 * ULN, (%)",ALT or AST; Atogepant 10 mg QD (N = 93),(4.3) %
same,"Participants with postbaseline ALT or AST (U/L) >=1.5 * ULN, n/N1",ALT or AST; Atogepant 10 mg QD (N = 93),4/92
same,"Participants with postbaseline ALT or AST (U/L) >=2 * ULN, (%)",ALT or AST; Atogepant 10 mg QD (N = 93),(4.3) %
same,"Participants with postbaseline ALT or AST (U/L) >=2 * ULN, n/N1",ALT or AST; Atogepant 10 mg QD (N = 93),4/92
same,"Participants with postbaseline ALT or AST (U/L) >=3 * ULN, (%)",ALT or AST; Atogepant 10 mg QD (N = 93),(2.2) %
same,"Participants with postbaseline ALT or AST (U/L) >=3 * ULN, n/N1",ALT or AST; Atogepant 10 mg QD (N = 93),2/92
same,"Participants with postbaseline ALT or AST (U/L) >=5 * ULN, n/N1",ALT or AST; Atogepant 10 mg QD (N = 93),0
same,"Participants with postbaseline ALT or AST (U/L) >=10 * ULN, n/N1",ALT or AST; Atogepant 10 mg QD (N = 93),0
same,"Participants with postbaseline ALT or AST (U/L) >=20 * ULN, n/N1",ALT or AST; Atogepant 10 mg QD (N = 93),0
same,"Participants with Concurrent Elevations ALT or AST >=3 * ULN AND Bilirubin Total >=1.5 * ULN, n/N1",ALT or AST; Atogepant 10 mg QD (N = 93),0
same,"Participants with Concurrent Elevations ALT or AST >=3 * ULN AND Bilirubin Total >=2 * ULN, n/N1",ALT or AST; Atogepant 10 mg QD (N = 93),0
same,"Participants with Potential Hy's Law ALT or AST >=3 * ULN AND Bilirubin Total >=2 * ULN AND ALP <2 * ULN, n/N1",ALT or AST; Atogepant 10 mg QD (N = 93),0
same,"Participants with postbaseline ALT or AST (U/L) >=1 * ULN, (%)",ALT or AST; Atogepant 30 mg BID (N = 86),(13.1) %
same,"Participants with postbaseline ALT or AST (U/L) >=1 * ULN, n/N1",ALT or AST; Atogepant 30 mg BID (N = 86),11/84
same,"Participants with postbaseline ALT or AST (U/L) >=1.5 * ULN, (%)",ALT or AST; Atogepant 30 mg BID (N = 86),(2.4) %
same,"Participants with postbaseline ALT or AST (U/L) >=1.5 * ULN, n/N1",ALT or AST; Atogepant 30 mg BID (N = 86),2/84
same,"Participants with postbaseline ALT or AST (U/L) >=2 * ULN, (%)",ALT or AST; Atogepant 30 mg BID (N = 86),(2.4) %
same,"Participants with postbaseline ALT or AST (U/L) >=2 * ULN, n/N1",ALT or AST; Atogepant 30 mg BID (N = 86),2/84
same,"Participants with postbaseline ALT or AST (U/L) >=3 * ULN, (%)",ALT or AST; Atogepant 30 mg BID (N = 86),(1.2) %
same,"Participants with postbaseline ALT or AST (U/L) >=3 * ULN, n/N1",ALT or AST; Atogepant 30 mg BID (N = 86),1/84
same,"Participants with postbaseline ALT or AST (U/L) >=5 * ULN, n/N1",ALT or AST; Atogepant 30 mg BID (N = 86),0
same,"Participants with postbaseline ALT or AST (U/L) >=10 * ULN, n/N1",ALT or AST; Atogepant 30 mg BID (N = 86),0
same,"Participants with postbaseline ALT or AST (U/L) >=20 * ULN, n/N1",ALT or AST; Atogepant 30 mg BID (N = 86),0
same,"Participants with Concurrent Elevations ALT or AST >=3 * ULN AND Bilirubin Total >=1.5 * ULN, n/N1",ALT or AST; Atogepant 30 mg BID (N = 86),0
same,"Participants with Concurrent Elevations ALT or AST >=3 * ULN AND Bilirubin Total >=2 * ULN, n/N1",ALT or AST; Atogepant 30 mg BID (N = 86),0
same,"Participants with Potential Hy's Law ALT or AST >=3 * ULN AND Bilirubin Total >=2 * ULN AND ALP <2 * ULN, n/N1",ALT or AST; Atogepant 30 mg BID (N = 86),0
same,"Participants with postbaseline ALT or AST (U/L) >=1 * ULN, (%)",ALT or AST; Atogepant 30 mg QD (N = 183),(17.8) %
same,"Participants with postbaseline ALT or AST (U/L) >=1 * ULN, n/N1",ALT or AST; Atogepant 30 mg QD (N = 183),32/180
same,"Participants with postbaseline ALT or AST (U/L) >=1.5 * ULN, (%)",ALT or AST; Atogepant 30 mg QD (N = 183),(7.2) %
same,"Participants with postbaseline ALT or AST (U/L) >=1.5 * ULN, n/N1",ALT or AST; Atogepant 30 mg QD (N = 183),13/180
same,"Participants with postbaseline ALT or AST (U/L) >=2 * ULN, (%)",ALT or AST; Atogepant 30 mg QD (N = 183),(3.3) %
